Where two headings read alike, the source gives them in different places.
What was measured:
C7 cloned T-cells = experiment: Trypan Blue cell viability, C7; assay type: cell-based; details: Mus musculus, read-out: Trypan Blue Cell Viability (%)
From the text: (§1) 1) The Trypan Blue Dye Exclusion Test for monitoring ceil viability as described by Phillips, H. J., in Tissue Culture Methods and Applications; Kruse, P. F., Jr., Patterson, M. K., Eds.; Academic Press, New York, 1973, 406, and by Wu, Y. W., Chik, L. L., Knazek, R. A. Cancer Research 1989, 49, 3754. The results of this assay are expressed as a percentage of viable cells:
(§2) [% viable cells]=[no. of alive cells]/[total no. of cells]×100
(§3) where the total no. cells=dead cells+alive cells. The results are compared directly with an untreated control, which typically show a three-to-four-fold increase for cancer cells, and a two-fold increase for normal cells. Treatments resulting in [% viable cells] of <30% are considered cytotoxic. Therefore, the trypan blue dye exclusion test was used to assess the number of dead and alive cells using various cell lines upon treatment with the crude and purified agent. This test provides a simple clue to the acute or late onset of a cytotoxic response. Readings for this and all other in vitro assays were taken 48 hours after treatment with the unpurified agent, and also […] after treatment for the purified agent. Thus, the trypan blue dye exclusion assay functions to confirm whether or not the cells were viable at the time readings were taken for other bioassays.
Each of these three fractions were then tested in the trypan blue and ^3 H-thymidine incorporation assays along with the original CsA as a control, against the LS cell line, which was the most sensitive of the cancer lines (Tables 3 and 4). […] The results of the trypan blue and ^3 H-thymidine incorporation assays against the three cell lines are compiled in Tables 5a-5f.

P815 cells (mastocytoma) = experiment: Trypan Blue cell viability, P815; assay type: cell-based; details: Mus musculus, P815, read-out: Trypan Blue Cell Viability (%)
From the text: as §1, §2, §3

LK lymphoma cells [1] = experiment: 3H-Thymidine Incorporation, LK; assay type: cell-based, mouse
From the text: (§4) 2) The ^3 H-Thymidine Incorporation Test as described by Ju, S. T., Dorf, M. E. J. Immunol. 1985, 134, 3722. This test was used for monitoring cellular proliferation by monitoring DNA synthesis. The results are expressed as percent ^3 H-thymidine incorporation relative to an untreated control:
(§5) [% ^3 H-thymidine incorporation]=[cpm agent treated cells]/[cpm
(§6) where cpm=counts per minute. Treatments resulting in [% ^3 H-thymidine incorporation] of <50% are considered active.
(§7) The ^3 H-thymidine incorporation assay therefore measures the amount of DNA synthesis when the cells are in the "S" phase of the cell cycle, and is used to assess cell proliferation. Cancer cells, which have a very rapid cell cycle turnover, normally incorporate large amounts of tritium (^3 H) unless inhibited by an exogenous agent. […] While the trypan blue dye exclusion test is an indicator of cell death, the ^3 H-thymidine incorporation test indicates a cytostatic status (not necessarily cytotoxic) of the cell. As previously noted, this latter test was the primary screen used to guide the isolation to the active agent.
(§8) With the preferred purified active agent in hand, ^3 H-thymidine incorporation and trypan blue assays were initially performed at different dosages using LK and BW lymphoma ceil lines in order to confirm the activity of the preferred purified active agent, and to bracket the active concentration range for the preferred purified active agent. With a molecular weight of 328, a 1 μg/mL solution corresponds to 3 μM concentration. In addition, the time course of cell viability in the trypan blue assay was also monitored in order to best optimize subsequent assays to ensure that the cells were still viable at the time of measurement, and to ensure a nontoxic response of the cells to the agent. Toxicity of the agent would have been observed as cell death within 2 hours. The trypan blue assays (Table 7), run at 30 μM and 3 μM of purified agent (10 and 1 μg/mL, respectively), indicated excellent cell viability after 24 hours, though with a significant drop in viability after 48 hours at a 30 μM dose of preferred purified active agent. Consequently the results of the in vitro assays employing purified agent were all recorded after 24 hours. In the ^3 H-thymidine incorporation assay (Table 8), dosages ranging from 0.1 to 250 μg/mL were examined.

[2] = test system: EL-4 cells (type T lymphoma); experiment: Trypan Blue cell viability, EL-4; assay type: cell-based; details: Mus musculus, EL4, read-out: Trypan Blue Cell Viability (%)
From the text: as §1, §2, §3

[3] = test system: BW (BW5147) lymphoma cells; experiment: Trypan Blue cell viability, BW (BW5147); assay type: cell-based; details: Mus musculus, read-out: Trypan Blue Cell Viability (%)
From the text: as §1, §2, §3, §8

LK lymphoma cells [4] = experiment: 35S-Methionine Incorporation (protein synthesis), LK; assay type: cell-based; details: Mus musculus; for activity at 1 µg/mL: 1 μg/mL; for activity at 10 µg/mL: 10 μg/mL
From the text: 3) ^35 S-Methionine Incorporation Test as described by Sorenson, C. M., Barry, M. A., Eastman, A. J. Natl. Canc. Inst. 1990, 82, 749. The results are expressed as percent ^35 S-methionine incorporation relative to an untreated control:
[% ^35 S-methionine incorporation]=[cpm agent treated cells]/[cpm
where cpm=counts per minute. Treatments resulting in [% ^35 S-methionine incorporation] of <50% are considered active.
The ^35 S-methionine incorporation test therefore measures protein synthesis. Activity in this bioassay could arise from inhibition of transcription and/or translation.
In this test, BW and LK lymphoma cells were treated with the preferred purified active agent at 1 μg/mL and 10 μg/mL for comparison with an untreated control. The treated cells were split into two groups, one of which was thoroughly washed to remove the preferred purified active agent prior to incubation with ^35 S-methionine.

[5] = test system: BW8767 cells (BW resistant mutant); experiment: 3H-Thymidine Incorporation, BW8767; assay type: cell-based; details: Mus musculus, read-out: 3H-Thymidine Incorporation (DNA Synthesis) Inhibition (%)
From the text: as §4, §5, §6, §7
(§9) The final in vitro assays performed with the preferred purified active agent were intended to examine the scope of the activity in the trypan blue assay against a wider range of tumor cell lines (Tables 10 and 11). These cell lines included a […] lymphoma BW8767, a BW mutant which is more resistant than the BW cell lines used in other assays, as evidenced by the results in Tables 10 and 11.

[6] = test system: CT26 cells (colon adenocarcinoma); experiment: Trypan Blue cell viability, CT26; assay type: cell-based; details: Mus musculus, CT26, read-out: Trypan Blue Cell Viability (%)
From the text: as §1, §2, §3, §9

With `CC1=C2C(=O)C=C(CO)[C@@H]2[C@H]2OC(=O)[C@@H](C)[C@@H]2[C@@H](O)C1` [11β,13-dihydrolactucin, 3,6-dimethyl-4-hydroxy-9-hydroxymethyl-3,3a,4,5,9a,9b-hexahydroazuleno[4,5-b]furan-2,7-dione] the viability at 0.1 µg/mL (C7 cloned T-cells) was 100%, the viability at 0.5 µg/mL (C7 cloned T-cells) was 100% and the viability at 1 µg/mL (C7 cloned T-cells) was 100%. For the same compound, the viability at 10 µg/mL (C7 cloned T-cells) was 90%, the viability at 0.1 µg/mL (P815 cells (mastocytoma)) was 100% and the viability at 0.5 µg/mL (P815 cells (mastocytoma)) was 100%. The viability at 1 µg/mL (P815 cells (mastocytoma)) was 100%, the viability at 10 µg/mL (P815 cells (mastocytoma)) was 80% and the “ED50, 3H-thymidine incorporation” value (LK lymphoma cells [1]) was “micromolar range”. The inhibition at 0.1 µg/mL (LK lymphoma cells [1]; Mus musculus, 3 h, 0.1 μg/mL, read-out: 3H-Thymidine Incorporation (DNA Synthesis) Inhibition (%)) was 95%, the inhibition at 1 µg/mL (LK lymphoma cells [1]; Mus musculus, 3 h, 1 μg/mL, read-out: 3H-Thymidine Incorporation (DNA Synthesis) Inhibition (%)) was 75% and the inhibition at 10 µg/mL (LK lymphoma cells [1]; Mus musculus, 3 h, 10 μg/mL, read-out: 3H-Thymidine Incorporation (DNA Synthesis) Inhibition (%)) was 5%. For the same compound, the inhibition at 25 µg/mL (LK lymphoma cells [1]; Mus musculus, 3 h, 25 μg/mL, read-out: 3H-Thymidine Incorporation (DNA Synthesis) Inhibition (%)) was 2%, the inhibition at 100 µg/mL (LK lymphoma cells [1]; Mus musculus, 3 h, 100 μg/mL, read-out: 3H-Thymidine Incorporation (DNA Synthesis) Inhibition (%)) was 2% and the inhibition at 250 µg/mL (LK lymphoma cells [1]; Mus musculus, 3 h, 250 μg/mL, read-out: 3H-Thymidine Incorporation (DNA Synthesis) Inhibition (%)) was 2%. It also gave a viability at 0.1 µg/mL [2] of 100%, a viability at 0.5 µg/mL [2] of 100% and a viability at 1 µg/mL [2] of 100%. For the same compound, the viability at 10 µg/mL [2] was 100%, the viability at 1 µg/mL ([3]; 2 h) was 100% and the viability at 10 µg/mL ([3]; 2 h) was 100%. For the same compound, the viability at 1 µg/mL ([3]; 5 h) was 100%, the viability at 10 µg/mL ([3]; 5 h) was 100% and the viability at 1 µg/mL ([3]; 12 h) was 100%. It also gave a viability at 10 µg/mL ([3]; 12 h) of 100%, a viability at 1 µg/mL ([3]; 24 h) of 100% and a viability at 10 µg/mL ([3]; 24 h) of 85%. The viability at 1 µg/mL ([3]; 36 h) was 90%, the viability at 10 µg/mL ([3]; 36 h) was 72% and the viability at 1 µg/mL ([3]; 48 h) was 90%. For the same compound, the viability at 10 µg/mL ([3]; 48 h) was 60%, the viability at 0.1 µg/mL [3] was 100% and the viability at 0.5 µg/mL [3] was 100%. It also gave a viability at 1 µg/mL [3] of 100%, a viability at 10 µg/mL [3] of 80% and an activity at 1 µg/mL (LK lymphoma cells [4]; LK (washed)) of 100%. For the same compound, the activity at 10 µg/mL (LK lymphoma cells [4]; LK (washed)) was 100%, the activity at 1 µg/mL (LK lymphoma cells [4]; LK, unwashed) was 50% and the activity at 10 µg/mL (LK lymphoma cells [4]; LK, unwashed) was 10%. For the same compound, the inhibition at 0.1 µg/mL ([5]; 0.1 μg/mL) was 100%, the inhibition at 0.5 µg/mL ([5]; 0.5 μg/mL) was 100% and the inhibition at 1 µg/mL ([5]; 1.0 μg/mL) was 80%. It also gave an inhibition at 10 µg/mL ([5]; 10 μg/mL) of 60%, a viability at 0.1 µg/mL [6] of 100% and a viability at 0.5 µg/mL [6] of 100%. It also gave a viability at 1 µg/mL [6] of 100% and a viability at 10 µg/mL [6] of 100%.
